Measurements taken from ChEMBL document CHEMBL1201862, “PubChem BioAssay data set” (2004).
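Growth conditions: 96-well plates. Treatment: test compound, 48 hours, 5 concentrations. Analysis: linear interpolation between bracketing concentrations; unreached endpoints set to highest concentration. Here, GI50 denotes the concentration required for 50% inhibition of growth.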 Calls of active or inactive are those of the source. Cut-off read from the data, not from the text of the source: active = GI50 up to about 1.1 µM and inactive = higher.

Columns and labels:
Test in all cases: DTP human tumour cell line panel, 48 h
[1] = tested on: OVCAR-8
[2] = tested on: HT-29
[3] = tested on: HCT-116
[4] = tested on: SW-620
[5] = tested on: T47D
[6] = tested on: NCI-H226
[7] = tested on: RXF 393
[8] = tested on: SF-539
[9] = tested on: HOP-92
[10] = tested on: DU-145
[11] = tested on: K562
[12] = tested on: RPMI-8226
[13] = tested on: COLO 205
[14] = tested on: MCF7
[15] = tested on: SF-295
[16] = tested on: SNB-75
[17] = tested on: NCI/ADR-RES
[18] = tested on: SK-MEL-2
[19] = tested on: CAKI-1
[20] = tested on: MOLT-4
[21] = tested on: SR
[22] = tested on: A498
[23] = tested on: MDA-N
[24] = tested on: TK-10
[25] = tested on: LOX IMVI
[26] = tested on: UACC-257
[27] = tested on: PC-3
[28] = tested on: A549
[29] = tested on: OVCAR-3
[30] = tested on: HCC 2998
[31] = tested on: SNB-19
[32] = tested on: 786-0
[33] = tested on: HCT-15
[34] = tested on: NCI-H522
[35] = tested on: SF-268
[36] = tested on: U-251
[37] = tested on: NCI-H23
[38] = tested on: HL-60
[39] = tested on: ACHN
[40] = tested on: UACC-62
[41] = tested on: SK-OV-3
[42] = tested on: SK-MEL-5
[43] = tested on: MDA-MB-231
[44] = tested on: SK-MEL-28
[45] = tested on: KM12
[46] = tested on: OVCAR-5
[47] = tested on: Malme-3M
[48] = tested on: NCI-H460
[49] = tested on: CCRF-CEM
[50] = tested on: EKVX
[51] = tested on: M14
[52] = tested on: HOP-62
[53] = tested on: MDA-MB-435
[54] = tested on: IGROV-1
[55] = tested on: BT-549
[56] = tested on: UO-31
[57] = tested on: SN12C
[58] = tested on: OVCAR-4

Measured: GI50

CSC1=C(C)C(/C=N/Nc2ccc([N+](=O)[O-])cc2)=C(C)N(c2ccccc2)S1(=O)=O
inactive: [1] 17.3 µM | [2] 28.5 µM | [3] 6.47 µM | [4] > 100 µM | [5] 3.09 µM | [6] > 100 µM | [7] > 100 µM | [8] > 100 µM | [9] > 100 µM | [10] > 100 µM | [11] 7.71 µM | [12] 5.07 µM | [13] 48.2 µM | [14] 32.4 µM | [15] 6.17 µM | [16] 38.5 µM | [17] 6.49 µM | [18] > 100 µM | [19] > 100 µM | [20] 5.27 µM | [21] 17.8 µM | [22] > 100 µM | [23] > 100 µM | [24] > 100 µM | [25] 19.6 µM | [26] > 100 µM | [27] 25.9 µM | [28] 36.3 µM | [29] 25.4 µM | [30] 25.8 µM | [31] > 100 µM | [32] > 100 µM | [34] 12.9 µM | [35] > 100 µM | [36] > 100 µM | [37] 5.93 µM | [38] 1.28 µM | [39] 44.9 µM | [40] 74.1 µM | [41] > 100 µM | [42] 17.4 µM | [43] > 100 µM | [44] > 100 µM | [45] 26.5 µM | [46] > 100 µM | [47] 94.2 µM | [48] 16.6 µM | [49] > 100 µM | [50] 33.9 µM | [51] 38.6 µM | [52] > 100 µM | [53] > 100 µM | [54] 28.2 µM | [55] 20.8 µM | [56] 29.3 µM | [57] > 100 µM | [58] > 100 µM
68.9 µM: [33]
